Experiments:
[1] = tested on: different microorganism cultures; experiment: In vitro antibacterial activity, standard dilution tests (microorganisms of Table I); type: cell-based
[2] = tested on: Staph. aureus L165; experiment: MIC, broth dilution test; type: cell-based; settings: Isosensitest broth, 24 h
[3] = tested on: Strep. pneumoniae L44 UC41; experiment: MIC, broth dilution test; type: cell-based; settings: Todd-Hewitt broth, 24 h, 37° C.
[4] = tested on: Staph. haemolyticus L602 (clinical isolate); experiment: MIC, broth dilution test; type: cell-based; settings: Isosensitest broth, 24 h, 37° C.
[5] = tested on: Proteus vulgaris L79 X19H ATCC881; experiment: MIC, broth dilution test; type: cell-based; settings: Isosensitest broth, 24 h, 37° C.
[6] = tested on: Pseudomonas aeruginosa L4 ATCC10145; experiment: MIC, broth dilution test; type: cell-based; settings: Isosensitest broth, 24 h, 37° C.
[7] = tested on: Strep. pyogenes L49 C203; experiment: MIC, broth dilution test; type: cell-based; settings: Todd-Hewitt broth, 24 h, 37° C.
[8] = tested on: Clostridium perfringens L290 ISS 30543; settings: AC broth, 24 h, anaerobic atmosphere, 37° C.
[9] = tested on: Strep. faecalis L149 ATCC 7080; experiment: MIC, broth dilution test; type: cell-based; settings: Isosensitest broth, 24 h, 37° C.
[10] = tested on: Haemophilus influenzae L 970 type b ATCC 19418; experiment: MIC, broth dilution test; type: cell-based; settings: Brain Heart broth +1% Supplement C, 48 h, 37° C.
[11] = tested on: Strep. mitis L796 (clinical isolate); experiment: MIC, broth dilution test; type: cell-based; settings: Todd-Hewitt broth, 24 h, 37° C.
[12] = tested on: Ureaplasma urealyticum L1479 (clinical isolate); experiment: MIC, broth dilution test; type: cell-based; settings: PPLO broth with supplements, 24 h, about 10^4 color-changing units/ml, 37° C.
[13] = tested on: Staph. epidermidis L147 ATCC 12228 (coagulase negative); settings: Isosensitest broth, 24 h, 37° C.
[14] = tested on: Neisseria gonorrhoeae L997 ISM68/126; experiment: MIC, broth dilution test; type: cell-based; settings: GC base broth +1% Isovitalex, 48 h, CO2-enriched atmosphere, 37° C.
[15] = tested on: Klebsiella pneumoniae L142; experiment: MIC, broth dilution test; type: cell-based; settings: Isosensitest broth, 24 h, 37° C.
[16] = tested on: S. pyogenes C 203 (L 49); experiment: Experimental septicemia in the mice; type: in vivo, CD-1 mice; settings: mice infected i.p. with S. pyogenes C 203 (L 49); compound s.c. immediately after infection; survival on the 7th day, Spearman and Karber
Method: The antimicrobial activity of the compounds of the invention is confirmed also in experimental septicemia in the mice. Control and treatment groups may include ten CD-1 mice (Charles River) weighing 18-22 g. They are infected intraperitoneally with 0.5 ml of bacterial suspension prepared by diluting an overnight culture of S. pyogenes C 203 (L 49) with sterile peptonized saline. Inocula are adjusted so that untreated animals die of septicemia within 48 h. The compounds to be tested are administered subcutaneously immediately after infection. On the 7th day, the ED50 in mg/kg is calculated by the method of Spearman and Karber (D. J. Finney "Statistical Methods in Biological Assay" Griffin, page 524, 1952) from the percentage of surviving animals at each dose.

Row | Substance | level of antimicrobial activity compared with de-acyl antibiotic A 40926 (Table I) [1] | M.I.C. ([2]; Staph. aureus (10^6 cfu/ml)) [µg/mL] | M.I.C. ([2]; Staph. aureus (30% bovine serum)) [µg/mL] | M.I.C. ([2]; Staph. aureus L165, 37° C., about 10^4-10^5 cfu/ml) [µg/mL] | M.I.C. [3] [µg/mL] | M.I.C. [4] [µg/mL] | M.I.C. [5] [µg/mL] | M.I.C. [6] [µg/mL] | M.I.C. [7] [µg/mL] | M.I.C. [8] [µg/mL] | M.I.C. [9] [µg/mL] | M.I.C. [10] [µg/mL] | M.I.C. [11] [µg/mL] | M.I.C. [12] [µg/mL] | M.I.C. [13] [µg/mL] | M.I.C. [14] [µg/mL] | M.I.C. [15] [µg/mL] | ED50 [16] [mg/kg]
1 | antibiotic A 40926 aminoglucuronyl aglycon | substantially the same level of antimicrobial activity as that reported above for de-acyl antibiotic A 40926 | – | – | – | – | – | – | – | – | – | – | – | – | – | – | – | – | –
2 | de-acyl antibiotic A 40926 | – | 2 | 2 | 1 | 0.25 | 32 | > 128 | > 128 | 0.25 | 0.13 | 2 | 128 | 0.5 | > 128 | 2 | 64 | > 128 | 2.33
3 | de-acyl antibiotic A 40926 P | substantially the same level of antimicrobial activity as that reported above for de-acyl antibiotic A 40926 | – | – | – | – | – | – | – | – | – | – | – | – | – | – | – | – | –

— patent US5567676A, “Glycopeptide antibiotics” (Gruppo Lepetit S.p.A, priority 1986, dated 1996)
